Assay results as given in patent US12466834B2, “Imidazodiazepinediones and methods of use thereof” (GFB (ABC), LLC, priority 2018, dated 2025).

Molecular target: T1, human TRPC5 (Homo sapiens, UniProt Q9UL62)
T1 construct: expressed in transfected cells
T1 sequence (Q9UL62 1-973): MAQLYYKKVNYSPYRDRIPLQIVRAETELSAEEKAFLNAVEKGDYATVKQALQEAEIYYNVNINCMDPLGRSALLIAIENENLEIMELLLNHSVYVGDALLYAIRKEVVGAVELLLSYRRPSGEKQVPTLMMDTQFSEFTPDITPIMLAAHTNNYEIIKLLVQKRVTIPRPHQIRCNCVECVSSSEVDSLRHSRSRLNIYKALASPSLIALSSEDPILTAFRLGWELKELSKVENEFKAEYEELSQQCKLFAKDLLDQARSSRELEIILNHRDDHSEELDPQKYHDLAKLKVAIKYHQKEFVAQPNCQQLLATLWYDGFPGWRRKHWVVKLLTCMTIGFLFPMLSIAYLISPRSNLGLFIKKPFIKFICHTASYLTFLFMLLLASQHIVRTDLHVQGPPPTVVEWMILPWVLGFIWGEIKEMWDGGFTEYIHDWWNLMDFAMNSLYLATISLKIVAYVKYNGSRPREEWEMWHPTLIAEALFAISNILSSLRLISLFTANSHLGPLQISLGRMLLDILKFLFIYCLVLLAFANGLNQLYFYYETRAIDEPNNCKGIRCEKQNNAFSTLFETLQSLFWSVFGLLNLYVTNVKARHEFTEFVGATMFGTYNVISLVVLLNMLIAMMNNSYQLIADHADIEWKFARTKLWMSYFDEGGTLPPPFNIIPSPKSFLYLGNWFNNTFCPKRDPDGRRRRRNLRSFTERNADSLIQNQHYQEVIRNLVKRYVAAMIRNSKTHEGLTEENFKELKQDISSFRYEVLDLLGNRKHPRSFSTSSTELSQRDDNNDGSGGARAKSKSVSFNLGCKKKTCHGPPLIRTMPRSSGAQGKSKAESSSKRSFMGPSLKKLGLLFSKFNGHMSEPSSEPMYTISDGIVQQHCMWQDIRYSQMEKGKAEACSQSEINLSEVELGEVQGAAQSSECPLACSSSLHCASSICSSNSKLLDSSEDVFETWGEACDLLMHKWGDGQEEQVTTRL
Assay: FLIPR calcium assay, compound activation (agonism) of TRPC5 calcium response
Format: cell-based
Parameters: key to Agonist Potency Range (FLIPR): A=0.001-1 μM; B=1-10 μM; C=>1 μM; D=tested with a positive result for agonism, but EC50 not calculated
Conditions: ICLN-1633 cells, Fluo-4 calcium response; for EC50: read-out: Agonist Potency Range (FLIPR)
Protocol: ICLN-1633 cells (HEK-TREx hTRPC5) expressing TRPC5 were generated as follows. Commercially available HekTrex-293 cells were seeded at 0.7×10^6 cells/well in a 1×6-well plate 24 hrs prior to transfection using 2 mL cell growth media containing no antibiotics (1× DMEM/high glucose (Hyclone #SH30022.02); 10% fetal bovine serum (Sigma) 2 mM sodium pyruvate, 10 mM HEPES). The human TRPC5 coding sequence (NM_012471 with a silent T478C mutation) was cloned into pcDNA5/TO (Invitrogen; Cat No. V103320) using hygromycin as the resistance gene and the plasmid (SEQ ID NO:1) propagated using T-Rex-293 cells (Invitrogen; Cat No. R71007) following manufacturer's directions. On day 2, 2 μg of plasmid DNA plus 6 μl of Xtreme-GENE HP reagent in Optimem (200 μl total volume) was prepared and incubated for 15 min at room temperature. This plasmid solution was then gently overlayed dropwise onto each well and the plate was gently swirled to mix complex with the media for approximately 30 seconds. Transfected cells were incubated at 37° C. in a 10% CO2 incubator for 24 hrs. The transfected cells were harvested and transferred into 2×150 mm dishes containing cell growth media with no antibiotics at 37° C.
Compounds were made up to, or supplied as a 10 mM stock solution generally using DMSO as the vehicle. 10-point dose response curves were generated using the Echo-550 acoustic dispenser. Compound source plates were made by serially diluting compound stocks to create 10 mM, 1 mM, and 0.1 mM solutions in DMSO into Echo certified LDV plates. The Echo then serially spotted 100% DMSO stock solutions into source dose response plates to generate a 4-fold dilution scheme. 100% DMSO was added to the spotted dose response plates to bring the final volume to 5 μl. 300 nl of the dose response stock plate was then spotted into pre-incubation and stimulation assay plates. 50 μl of pre-incubation buffer and 100 μl of stimulation buffer was then added to the plates resulting in a final assay test concentration range of 30 μM to 0.0001 μM with a final DMSO concentration of 0.3%.
Human ICLN-1633 cells expressing were plated onto 384 well, black poly-D-lysine-coated microplates and maintained in TRPC5 growth media the day prior to use for experiments. TRPC5 expression was induced by the application of 1 μg/mL tetracycline at the time of plating. Media was removed from the plates and 10 μl of 4 μM of Fluo-4 AM (mixed with equal volume of Pluronic F-127) in Earls's Balanced Salt Solution (EBSS) was added to the cells. Cells were incubated at room temperature, protected from light, for 60-90 minutes. After the incubation period, the dye was removed and replaced with 10 μl of EBSS. Cell, pre-incubation and stimulation plates were loaded onto the FLIPR-II and the assay was initiated. The FLIPR measured a 10 second baseline and then added 10 μl of 2× compounds (or controls). Changes in fluorescence were monitored for an additional 5 minutes. After the 5 minute pre-incubation, 20 μl of 2× riluzole (with 1× compound or controls) was added to the cell plate. The final riluzole stimulation concentration in the assay was 30 μM. After the riluzole addition, changes in fluorescence were monitored for an additional 5 minutes. Reduction in the riluzole-activated calcium response relative to control wells was reported as inhibition. A compound-mediated increase in the riluzole response relative to control riluzole response (no test agent present) with no enhancement of calcium entry during preincubation phase was reported as an agonist response.
Compound activation (agonism) of TRPC5 calcium response was determined as follows. After the initial compound addition, fluorescence was monitored for 5 minutes. The maximum relative fluorescence response (minus the control response of EBSS buffer alone) is captured and exported from the FLIPR. Compound activation is calculated using the following formula: […]

SMILES | Agonist Potency Range (FLIPR) | EC50
C[C@@H]1C(=O)N(C)c2nc(Oc3cccc(F)c3)n(Cc3ccc(Cl)cc3)c2C(=O)N1CCCO (single isomer, unassigned) [Compound 19] | D | –
O=C1c2c(nc(Oc3cccc(OC(F)(F)F)c3)n2Cc2ccc(Cl)cc2)N2CCC[C@H]2C(=O)N1CCCO (single isomer, unassigned) [Compound 22] | – | 1 to 10 µM
O=C1c2c(nc(Oc3cccc(OC(F)(F)F)c3)n2Cc2ccc(Cl)cc2)N2CCC[C@@H]2C(=O)N1CCCO (single isomer, unassigned) [Compound 23] | – | > 10 µM
CN1CC(=O)N(CCCO)C(=O)c2c1nc(Oc1cccc(OC(F)(F)F)c1)n2Cc1ccc(Cl)cc1 [Compound 21, 1-[(4-chlorophenyl)methyl]-7-(3-hydroxypropyl)-4-methyl-2-[3-(trifluoromethoxy)phenoxy]-1H,4H,5H,6H,7H,8H-imidazo[4,5-e][1,4]diazepine-6,8-dione] | – | > 10 µM
